From paper PMC8558239, “Interaction Between Florfenicol and Doxycycline Involving Cytochrome P450 3A in Goats (Capra hricus)” (Frontiers in Veterinary Science, 2021)
Read-outs that look alike come from different tables or passages of the source.

Experiments:
CYP3A24 = experiment: Incubation of recombinant CYP3A24 with FF and DOX (FFA production); assay type: in vitro ADME, goat; conditions: FF incubated with CYP3A24
CYP3A24 gene = experiment: Gene expression of CYP3A24 in goat liver (qPCR); assay type: in vivo, goats
Protocol: Throughout the experiment, all goats had ad libitum access to feed and water without antibiotics. The goats were divided into three groups, namely the control group (6 animals), the single group (24 animals), and the combined group (24 animals). The control group was fed without medication. In the single group, FF (Zhonglongshenli Animal Pharmaceutical Co., Ltd. Hefei, China, specification: 10 mL: 1 g) was injected into the neck muscles at 48 h intervals, twice in total. In the combined group, FF was injected into the neck muscles at 48 h intervals, twice in total, and DOX-hyclate (Zhonglongshenli Animal Pharmaceutical Co., Ltd. Hefei, China, specification: 10 mL: 1 g) was injected into the neck muscles, once a day for 3 days. The volume of the treatment solution was calculated individually for each goat to provide a dose equivalent to 20 mg FF/kg bw and 10 mg DOX/kg bw. […]
Real-time quantitative polymerase chain reaction (qPCR) was used to detect the expression of CYP3A24 in treated goats. […] The concentration and purity of RNA was detected by Q3000 (Thermo, USA). […] The data were analyzed by the 2^ΔΔCt method.

CYP3A24 R440A = conditions: mutant R440A
CYP3A24 R372A = conditions: mutant R372A
[1] = Tissue residue depletion in goats (LC-MS/MS); assay type: in vivo, goats (Capra hircus); conditions: both sexes, Boaer-cross, intramuscular, i.m., mean ± SD, 4 goats; for concentration at 0.5 days: 0.5 days after last dose; for concentration at 1 day: 1 day after last dose
Protocol: In this study, a total of 54 Boaer-cross goats (Capra hircus) of both sexes, about 8 months old, were selected, weighing 28–36 kg. During the 1st week of acclimatization, all animals were raised in the usual way, with free access to feed and water. The experiment was conducted in accordance with the Guidelines for the Care and Use of Laboratory Animals issued by HZAU and approved by the Ethics Committee of Veterinary College of HZAU.
Throughout the experiment, all goats had ad libitum access to feed and water without antibiotics. The goats were divided into three groups, namely the control group (6 animals), the single group (24 animals), and the combined group (24 animals). The control group was fed without medication. In the single group, FF (Zhonglongshenli Animal Pharmaceutical Co., Ltd. Hefei, China, specification: 10 mL: 1 g) was injected into the neck muscles at 48 h intervals, twice in total. In the combined group, FF was injected into the neck muscles at 48 h intervals, twice in total, and DOX-hyclate (Zhonglongshenli Animal Pharmaceutical Co., Ltd. Hefei, China, specification: 10 mL: 1 g) was injected into the neck muscles, once a day for 3 days. The volume of the treatment solution was calculated individually for each goat to provide a dose equivalent to 20 mg FF/kg bw and 10 mg DOX/kg bw.
Goats of the single group (treated with FF) and goats of the combined group (treated with FF and DOX) were euthanized as previously described at 0.5 (n = 4), 1 (n = 4), 3 (n = 4), 7 (n = 4), 14 (n = 4), and 21 days (n = 4) after the last dose of 20 mg FF/kg bw (single group) and after the last dose of 20 mg FF/kg bw plus 10 mg DOX/kg bw (combined group). Goats were immediately exsanguinated, and tissue specimens of liver, kidney and muscle were collected separately. Each of the tissue specimens was carefully weighed and stored frozen at −20°C until assayed for concentrations of FF and FFA.
The method of FF and FFA pre-processing in the target tissues was as follows: Tissue samples weighing 1.00 ± 0.01 g were placed in a 10 mL centrifuge tube, then 5 mL 2% ammoniated ethyl acetate was added, and the tube was vortexed, sonicated and centrifuged. The above steps were repeated, and the supernatants were pooled and dried under a stream of nitrogen. The residue was reconstituted in 5% acetic acid in water, vortexed and passed through an MCX solid-phase extraction column (the order of the column was methanol, water, sample, 5% acetic acid water and 8% ammoniated ethyl acetate), then the eluate was dried under nitrogen, re-dissolved in 2 mL of degreased n-hexane, passed through a 0.22 μm filter membrane and subjected to LC-MS/MS (AB SCIEX API5000, USA) analysis.
All inter-assay coefficients of variation in each tissue were within 9.93%, the intra-assay coefficients of variation in each tissue were within 11.08%, and the recovery rates in each tissue were between 70.62 and 113.55%. […] For FF and FFA, the LOQ of the analysis was 10 μg/kg, and the LOD of the analysis was 2 μg/kg. The peak times of FFA and FF were 1.80 and 6.05, respectively (Figure 1).

[2] = tested on: CYP3A24 and its mutants (R105A, R372A, R440A); experiment: Protein activity verification of CYP3A24 and its mutants with testosterone; conditions: TS 1 μmol/L, 60 min
Protocol: Testosterone (TS) is a specific substrate of CYP3A, which can generate 6β-OHTS under the action of CYP3A ([21]). In order to study the protein activity of CYP3A24 and its mutants, we incubated each protein with TS. The experimental steps were as follows: protein (0.5 mg/mL) and NADPH (1 mmol/L) were added to PBS (pH 7.4) for 10 min at 37°C, then TS (Dr. Ehrenstorfer GmbH, Germany, 1 μmol/L) was added to start the reaction. The total reaction volume was 200 μL. At 60 min after drug addition, 200 μL of ice-cold acetonitrile was added to terminate the reaction. After centrifugation at 12,000 g/min for 15 min, the supernatant was filtered through a 0.22 μm membrane and analyzed by LC-MS/MS (AB SCIEX API5000, USA). For TS and 6β-OHTS, chromatographic separation occurred using a Thermo Scientific Hypersil Gold C18 column (150 × 2.1 mm, 5 μm particles), and analytes were detected on an API5000 mass analyser. Mobile phase A was 0.1% formic acid in water, and mobile phase B was methanol. The flow rate was 0.2 mL/min with a linear gradient under the following conditions: 0–0.10 min 5–85% B, 0.10–4.10 min 85% B, 4.10–8.00 min 85–5% B. The injection volume was set to 10 μL.

[3] = goat, 20 mg/kg bw, kidney, read-out: Tissue concentration FF
[4] = goat, 20 mg/kg bw, liver, read-out: Tissue concentration FF
[5] = goat, 20 mg/kg bw, muscle, read-out: Tissue concentration FF

C[C@H]1c2cccc(O)c2C(=O)C2=C(O)[C@]3(O)C(=O)C(C(N)=O)=C(O)[C@@H](N(C)C)[C@@H]3[C@@H](O)[C@@H]21 [DOX, α-6-deoxy-5-hydroxytetracycline]
reduction of FFA production on addition of DOX (CYP3A24): 17.8%

CS(=O)(=O)c1ccc([C@@H](O)[C@@H](CF)NC(=O)C(Cl)Cl)cc1 [FF]
up-regulation of CYP3A24 gene expression compared to control (CYP3A24 gene; 1 day after treatment stopped): about 2.3 fold
up-regulation of CYP3A24 gene expression compared to control (CYP3A24 gene; 3 days after treatment stopped): ~3 fold
reduction of FF metabolism (FFA production) vs CYP3A24 (CYP3A24 R440A): 65.8%
reduction of FF metabolism (FFA production) vs CYP3A24 (CYP3A24 R372A): 32.9%
concentration at 3 days after last dose ([1]; goat (Capra hircus), 20 mg FF/kg bw, liver, 3 days after last dose): 936 ± 148 ng/g
concentration at 7 days after last dose ([1]; goat (Capra hircus), 20 mg FF/kg bw, liver, 7 days after last dose): 338 ± 126 ng/g
concentration at 14 days after last dose ([1]; goat (Capra hircus), 20 mg FF/kg bw, liver, 14 days after last dose): 179 ± 26.5 ng/g
concentration at 21 days after last dose ([1]; goat (Capra hircus), 20 mg FF/kg bw, liver, 21 days after last dose): 44.5 ± 17.6 ng/g
concentration at 0.5 days [1, 3]: 2260 ± 203 ng/g
concentration at 1 day [1, 3]: 1770 ± 142 ng/g
concentration at 3 days ([1]; goat, 20 mg/kg bw, kidney, 3 days after last dose, read-out: Tissue concentration FF): 843 ± 124 ng/g
concentration at 7 days ([1]; goat, 20 mg/kg bw, kidney, 7 days after last dose, read-out: Tissue concentration FF): 327 ± 43.4 ng/g
concentration at 14 days ([1]; goat, 20 mg/kg bw, kidney, 14 days after last dose, read-out: Tissue concentration FF): 131 ± 17.1 ng/g
concentration at 21 days ([1]; goat, 20 mg/kg bw, kidney, 21 days after last dose, read-out: Tissue concentration FF): 37.5 ± 8.6 ng/g
concentration at 0.5 days [1, 4]: 2790 ± 257 ng/g
concentration at 1 day [1, 4]: 2050 ± 310 ng/g
concentration at 0.5 days [1, 5]: 1760 ± 201 ng/g
concentration at 1 day [1, 5]: 858 ± 43.2 ng/g
concentration at 3 days ([1]; goat, 20 mg/kg bw, muscle, 3 days after last dose, read-out: Tissue concentration FF): 376 ± 58.1 ng/g
concentration at 7 days ([1]; goat, 20 mg/kg bw, muscle, 7 days after last dose, read-out: Tissue concentration FF): 162 ± 4.6 ng/g
concentration at 14 days ([1]; goat, 20 mg/kg bw, muscle, 14 days after last dose, read-out: Tissue concentration FF): 48.6 ± 7.6 ng/g

C[C@]12CC[C@H]3[C@@H](CCC4=CC(=O)CC[C@@]43C)[C@@H]1CC[C@@H]2O [TS, Testosterone]
metabolism of TS into 6β-OHTS [2]: could metabolize TS
